Data as given in patent US4419517A, “4a-Aryl-trans-decahydroisoquinolines” (E. I. Du Pont de Nemours & Co., priority 1975, dated 1983).

Columns and labels:
Straub tail = Straub tail in mice; assay type: in vivo; settings: dose not stated
Excerpt: Included in this group are the compounds of examples 9, 10, 16 and 18.

[1] = system: phenylquinone-induced stretching or writhing syndrome; assay: Phenylquinone writhing test, oral, female white mice (modified from Siegmund et al.); assay type: in vivo; settings: for analgesic activity of the optical isomers, in words: dextro and laevo forms; for ED50 (optical isomers, phenylquinone writhing test described in Example A): optical isomers of N-methyl-4a-phenyl-trans-decahydroisoquinoline, mice, test as in Example A; for ED50: Mus musculus, po, suspended in 1% Methocel, fasted female white mice, phenylquinone i.p. 23 or 30 min later, observed 10 min, moving average method, read-out: oral ED50 (effective analgesic dose for 50% of the mice)
Experimental: In a standard mouse test modified from Siegmund et al. [Proc. Soc. Exp. Biol. Med. 95, 729 (1957)], a test compound suspended in 1% Methocel® was given orally to fasted (17-21 hours) female white mice, 5-20 animals per double blind test. Aqueous (0.01%) phenyl-p-benzoquinone (phenylquinone) was injected intraperitoneally at 23 or 30 minutes later using 0.25 ml per mouse. […] The effective analgesic dose for 50% of the mice (ED50) was calculated by the moving average method of Weil [Biometrics 8, 249 (1952)].The oral ED50 dosages of several compounds of the invention are: […]

[2] = J. Am. Chem. Soc. 72, 712 (1950); cited from earlier work

Compound | Straub tail in mice (evidence for appearing to be nonaddicting) (Straub tail) | ED50 [1] | also measured
CCCCCCN1CC[C@]2(c3cccc(O)c3)CCCC[C@H]2C1 (relative stereo) [Example 16, N-(n-Hexyl)-4a-(m-hydroxyphenyl)-trans-decahydroisoquinoline] | do not produce the Straub tail | – | –
COc1cccc(C23CCN(CC4CC4)CC2CCC(C)C3)c1 (stereo not drawn) [Example 18, N-cyclopropylmethyl-4a-(m-methoxyphenyl)-6-methyl-trans-decahydroisoquinoline] | do not produce the Straub tail | – | –
CN1CC[C@@]2(c3ccccc3)CCCC[C@@H]2C1 (relative stereo) [Laevo (Ex. 2H-1), laevo-N-Methyl-4a-phenyl-trans-decahydroisoquinoline] | – | – | analgesic activity of the optical isomers, in words ([1]; phenylquinone writhing test): active; ED50 (optical isomers, phenylquinone writhing test described in Example A) [1]: 23.0 mg/kg
CN1CC[C@@]2(c3ccccc3)CCCC[C@@H]2C1 (relative stereo) [Dextro (Ex. 2H-2), dextro-N-Methyl-4a-phenyl-trans-decahydroisoquinoline] | – | – | analgesic activity of the optical isomers, in words ([1]; phenylquinone writhing test): active; analgesic effectiveness of dextro form compared with laevo form ([1]; dextro vs laevo form, phenylquinone writhing test): significantly more effective than the laevo form; ED50 (optical isomers, phenylquinone writhing test described in Example A) [1]: 3.5 mg/kg
COc1cccc([C@@]23CCCC[C@H]2CN(CC2CC2)CC3)c1 (relative stereo) [Example 9, N-Cyclopropylmethyl-4a-(m-methoxyphenyl)-trans-decahydroisoquinoline] | do not produce the Straub tail | 8 mg/kg | –
COc1cccc([C@@]23CCCC[C@H]2CN(C)CC3)c1 (relative stereo) [Example 3-E, N-Methyl-4a-(m-methoxyphenyl)-trans-decahydroisoquinoline] | – | 3 mg/kg | –
CN1CC[C@]2(c3cccc(O)c3)CCCC[C@H]2C1 (relative stereo) [Example 4, N-methyl-4a-(m-hydroxyphenyl)-trans-decahydroisoquinoline] | – | 2.3 mg/kg | –
CN1CC[C@]2(c3ccccc3)CCCC[C@@H]2C1 (relative stereo) [N-methyl-4a-phenyl-cis-decahydroisoquinoline] | – | – | analgesic activity [2]: low analgesic activity
Oc1cccc([C@@]23CCCC[C@H]2CN(CC2CC2)CC3)c1 (relative stereo) [Example 10, N-Cyclopropylmethyl-4a-(m-hydroxyphenyl)-trans-decahydroisoquinoline] | do not produce the Straub tail | – | –
